Structures can show the parent of a compound that is named as a salt.

This note sets out measurements from patent US7589097B2, “Triazol[4,5-d] pyramidine derivatives and their use as purinergic receptor antagonists” (Vernalis Research Limited, priority 2001, dated 2009).

As usually defined, the melting point is the temperature, or range, at which the solid turns liquid.

As for `Nc1nc(-c2ccco2)c2nnn(Cc3cc(F)ccc3N)c2n1` [Example 171, 3-(2-amino-5-fluorobenzyl)-7-(2-furyl)-3H-[1,2,3]triazolo[4,5-d]pyrimidine-5-amine], the melting point was determined as 219.3 °C.
The molecule `CC(C)c1cc(Cn2nnc3c(-c4ccco4)nc(N)nc32)nc(C(C)C)c1` [Example 199, 3-(4,6-diisopropyl-2-pyridylmethyl)-7-(2-furyl)-3H-[1,2,3]triazolo[4,5-d]pyrimidine-5-amine] displayed a melting point of 226.5 to 227.9 °C.
The same measure for `Nc1nc(-c2ccco2)c2nnn(Cc3cccc4cc[nH]c34)c2n1` [Example 154, 7-(2-furyl)-3-(7-indolylmethyl)-3H-[1,2,3]triazolo[4,5-d]pyrimidine-5-amine]: 295.3 to 295.5 °C.
The same measure for `CN(C)c1cccc(Cn2nnc3c(-c4ccco4)nc(N)nc32)c1` [Example 162, 3-(3-(N,N-dimethylamino)benzyl)-7-(2-furyl)-3H-[1,2,3]triazolo[4,5-d]pyrimidine-5-amine]: 195.1 to 195.2 °C; for `Nc1nc(-c2ccco2)c2nnn(Cc3ccc4[nH]ccc4c3)c2n1` [Example 153, 7-(2-furyl)-3-(5-indolylmethyl)-3H-[1,2,3]triazolo[4,5-d]pyrimidine-5-amine]: 226.8 to 227.4 °C; for `Cc1cccc(Cn2nnc3c(-c4ccc(C)o4)nc(N)nc32)n1` [Example 59, 7-(5-methyl-2-furyl)-3-(6-methyl-2-pyridylmethyl)-3H-[1,2,3]triazolo[4,5-d]pyrimidine-5-amine]: 187.9 to 188.7 °C.
As for `Cc1c(N)cccc1Cn1nnc2c(-c3ccco3)nc(N)nc21` [Example 89, 3-(3-amino-2-methylbenzyl)-7-(2-furyl)-3H-[1,2,3]triazolo[4,5-d]pyrimidine-5-amine], the melting point was in the range of 247.1 to 247.2 °C.
The same measure for `Nc1cccc(Cn2nnc3c(-c4ccn[nH]4)nc(N)nc32)c1` [Example 175, 3-(3-aminobenzyl)-7-(1H-pyrazol-3-yl)-3H-[1,2,3]triazolo[4,5-d]pyrimidine-5-amine]: 279.3 to 281.3 °C.
The same measure for `Nc1nc(-c2ccco2)c2nnn(Cc3ccc(Cl)c([N+](=O)[O-])c3)c2n1` [Example 110, 3-(4-chloro-3-nitrobenzyl)-7-(2-furyl)-3H-[1,2,3]triazolo[4,5-d]pyrimidine-5-amine]: 247.4 to 247.5 °C.
With `Nc1nc(-c2ccco2)c2nnn(CC(=O)Nc3ccccn3)c2n1` [Example 52, (5-amino-7-(2-furyl)-3H-[1,2,3]triazolo[4,5-d]pyrimidin-3-yl)-N-(2-pyridyl)acetamide], the melting point was 263.8 to 264 °C.
The same measure for `CNCc1cccc(Cn2nnc3c(-c4ccco4)nc(N)nc32)n1` (as salt: hydrochloride) [Example 226, 7-(2-Furyl)-3-(6-(N-methylamino)methyl-2-pyridylmethyl)-3H-[1,2,3]triazolo[4,5-d]pyrimidine-5-amine]: 221.4 to 221.5 °C.
The same measure for `Cc1cnc(Cn2nnc3c(-c4ccco4)nc(N)nc32)cn1` [Example 106, 7-(2-furyl)-3-(5-methyl-2-pyrazinylmethyl)-3H-[1,2,3]triazolo[4,5-d]pyrimidine-5-amine]: 288.1 to 288.2 °C.
In turn, `COc1ccc(C(=O)Cn2nnc3c(-c4ccco4)nc(N)nc32)cc1` [Example 229, 2-(5-amino-7-(2-furyl)-3H-[1,2,3]triazolo[4,5-d]pyrimidin-3-yl)-1-(4-methoxyphenyl)ethanone] yielded a melting point of 258.2 to 258.4 °C.
Turning to `CC(C)(C)OC(=O)n1ccc2cc(Cn3nnc4c(-c5ccco5)nc(N)nc43)ccc21` [Example 142, tert-butyl 5-(5-amino-7-(2-furyl)-3H-[1,2,3]triazolo[4,5-d]pyrimidine-3-ylmethyl)indole-1-carboxylate], the melting point lay within 189 to 189.1 °C.
The same measure for `Nc1nc(-c2ccco2)c2nnn(CCc3cccs3)c2n1` [Example 196, 7-(2-furyl)-3-(2-(2-thienylethyl))-3H-[1,2,3]triazolo[4,5-d]pyrimidine-5-amine]: 178.4 to 179 °C.
For `Nc1ccc(Cn2nnc3c(-c4ccco4)nc(N)nc32)cc1` [Example 141, 3-(4-aminobenzyl)-7-(2-furyl)-3H-[1,2,3]triazolo[4,5-d]pyrimidine-5-amine], the melting point was in the range of 240.3 to 240.4 °C.
The same measure for `Nc1nc(-c2ccco2)c2nnn(Cc3ccsc3)c2n1` [Example 179, 7-(2-furyl)-3-(3-thienylmethyl)-3H-[1,2,3]triazolo[4,5-d]pyrimidine-5-amine]: 215.8 to 216.9 °C; for `Nc1nc(-c2ccco2)c2nnn(Cc3cc(F)cc(F)c3F)c2n1` [Example 168, 7-(2-furyl)-3-(2,3,5-trifluorobenzyl)-3H-[1,2,3]triazolo[4,5-d]pyrimidine-5-amine]: 204 to 204.2 °C; for `C[Si](C)(C)CCOCOc1cc([N+](=O)[O-])ccc1Cn1nnc2c(-c3ccco3)nc(N)nc21`: 136.5 to 137.6 °C.
The same measure for `Nc1nc(-c2ccco2)c2nnn(Cc3ccc(Cl)cc3[N+](=O)[O-])c2n1` [Example 119, 3-(4-chloro-2-nitrobenzyl)-7-(2-furyl)-3H-[1,2,3]triazolo[4,5-d]pyrimidine-5-amine]: above 230 °C; for `COc1cc([N+](=O)[O-])ccc1Cn1nnc2c(-c3ccco3)nc(N)nc21` [Example 159, 7-(2-furyl)-3-(2-methoxy-4-nitrobenzyl)-3H-[1,2,3]triazolo[4,5-d]pyrimidine-5-amine]: 235.9 to 237.8 °C; for `CNC(=O)c1cccc(Cn2nnc3c(-c4ccc(C)o4)nc(N)nc32)c1` [Example 67, 3-(5-amino-7-(5-methyl-2-furyl)-3H-[1,2,3]triazolo[4,5-d]pyrimidin-3-ylmethyl)-N-methylbenzamide]: 252.9 to 253 °C.
Consider `Nc1cccc(Cn2nnc3c(-c4cncs4)nc(N)nc32)c1` [Example 50, 3-(3-aminobenzyl)-7-(5-thiazolyl)-3H-[1,2,3]triazolo[4,5-d]pyrimidine-5-amine], for which the melting point fell in the range of 228.2 to 228.3 °C.
`Nc1nc(-c2ccco2)c2nnn(Cc3csc(-c4ccccc4)n3)c2n1` [Example 108, 7-(2-furyl)-3-(2-phenylthiazol-4-ylmethyl)-3H-[1,2,3]triazolo[4,5-d]pyrimidine-5-amine] returned a melting point of 215 to 215.3 °C.
Take `Cc1cccc(Cn2nnc3c(-c4ccco4)nc(N)nc32)c1` [Example 23, 7-(2-furyl)-3-(3-methylbenzyl)-3H-[1,2,3]triazolo[4,5-d]pyrimidine-5-amine]: the melting point is 187.3 to 187.7 °C.
`CC(=O)NCc1cccc(Cn2nnc3c(-c4ccco4)nc(N)nc32)n1` [Example 177, 3-(6-Acetamidomethyl-2-pyridylmethyl)-7-(2-furyl)-3H-[1,2,3]triazolo[4,5-d]pyrimidine-5-amine] showed a melting point of 245.9 to 247 °C.
Molecule `Cc1ccc(-c2nc(N)nc3c2nnn3Cc2cccc(-c3ccccc3)n2)o1` [Example 82, 7-(5-methyl-2-furyl)-3-(6-phenyl-2-pyridylmethyl)-3H-[1,2,3]triazolo[4,5-d]pyrimidine-5-amine] gave a melting point of 205 to 205.3 °C.
For the molecule `Cc1cnc(-c2nc(N)nc3c2nnn3Cc2ccccc2F)s1` [Example 38, 3-(2-fluorobenzyl)-7-(5-methyl-2-thiazolyl)-3H-[1,2,3]triazolo[4,5-d]pyrimidine-5-amine], the melting point was in the range of 242 to 242.1 °C.
The same measure for `Cc1ccc(-c2nc(N)nc3c2nnn3Cc2ccc([N+](=O)[O-])c(C)c2)o1` [Example 123, 7-(5-methyl-2-furyl)-3-(3-methyl-4-nitrobenzyl)-3H-[1,2,3]triazolo[4,5-d]pyrimidine-5-amine]: 214.6 to 216.2 °C.
The same measure for `Cc1cc(Cn2nnc3c(-c4ccco4)nc(N)nc32)cc(C)c1N` [Example 262, 3-(4-amino-3,5-dimethylbenzyl)-7-(2-furyl)-3H-[1,2,3]triazolo[4,5-d]pyrimidine-5-amine]: 250.1 to 261.3 °C; for `Cc1ccc(N)c(Cn2nnc3c(-c4ccco4)nc(N)nc32)c1` [Example 104, 3-(2-amino-5-methylbenzyl)-7-(2-furyl)-3H-[1,2,3]triazolo[4,5-d]pyrimidine-5-amine]: 249.9 to 250.5 °C.
In the case of `Cc1ccc(-c2nc(N)nc3c2nnn3Cc2cccc(CNC(=O)OC(C)(C)C)c2)o1` [Example 73, tert-butyl N-(3-(5-amino-7-(5-methyl-2-furyl)-3H-[1,2,3]triazolo[4,5-d]pyrimidine-3-ylmethyl)benzyl)carbamate], the melting point lay within 178.7 to 179.3 °C.
The same measure for `COc1ccnc(Cn2nnc3c(-c4ccco4)nc(N)nc32)c1` [Example 63, 7-(2-furyl)-3-(4-methoxy-2-pyridylmethyl)-3H-[1,2,3]triazolo[4,5-d]pyrimidine-5-amine]: 201.1 to 201.2 °C; for `Cc1ccc([N+](=O)[O-])c(Cn2nnc3c(-c4ccco4)nc(N)nc32)c1` [Example 96, 7-(2-furyl)-3-(5-methyl-2-nitrobenzyl)-3H-[1,2,3]triazolo[4,5-d]pyrimidine-5-amine]: 226.6 to 226.9 °C.
In turn, `Nc1nc(-c2ccco2)c2nnn(Cc3cnccn3)c2n1` [Example 128, 7-(2-furyl)-3-(2-pyrazinylmethyl)-3H-[1,2,3]triazolo[4,5-d]pyrimidine-5-amine] yielded a melting point of 129.1 to 131 °C.
The same measure for `Nc1nc(-c2ccco2)c2nnn(Cc3cccc(F)n3)c2n1` [Example 71, 3-(6-fluoro-2-pyridylmethyl)-7-(2-furyl)-3H-[1,2,3]triazolo[4,5-d]pyrimidine-5-amine]: 228.7 to 228.9 °C; for `CCc1cccc(Cn2nnc3c(-c4ccco4)nc(N)nc32)n1` [Example 135, 3-(6-ethyl-2-pyridylmethyl)-7-(2-furyl)-3H-[1,2,3]triazolo[4,5-d]pyrimidine-5-amine]: 208.6 to 208.8 °C; for `NCc1ccccc1Cn1nnc2c(-c3ccco3)nc(N)nc21` [Example 161, 3-(2-aminomethylbenzyl)-7-(2-furyl)-3H-[1,2,3]triazolo[4,5-d]pyrimidine-5-amine]: > 250 °C (dec.).
